{"source": "patent US20060257843A1", "about": "(priority 2002, published 2006)", "key": {"Kv1.3": {"molecular_target": "T1, Kv1.3 (Homo sapiens, UniProt P22001)", "T1 construct": "host or cells: oocytes", "details": "cited from earlier work"}, "[1]": {"system": "primary cultures of cortex", "type": "cell-based, rat"}, "[2]": {"system": "primary cultures of cortex", "type": "cell-based, rat", "remark": "listed apart in the source"}, "Kv1.1": {"molecular_target": "T2, Kv1.1 (Homo sapiens, UniProt Q09470)", "T2 construct": "host or cells: oocytes", "details": "cited from earlier work"}, "[3]": {"molecular_target": "Shaker H4 potassium channel (Drosophila melanogaster, UniProt P08510)", "sequence (P08510 whole entry)": "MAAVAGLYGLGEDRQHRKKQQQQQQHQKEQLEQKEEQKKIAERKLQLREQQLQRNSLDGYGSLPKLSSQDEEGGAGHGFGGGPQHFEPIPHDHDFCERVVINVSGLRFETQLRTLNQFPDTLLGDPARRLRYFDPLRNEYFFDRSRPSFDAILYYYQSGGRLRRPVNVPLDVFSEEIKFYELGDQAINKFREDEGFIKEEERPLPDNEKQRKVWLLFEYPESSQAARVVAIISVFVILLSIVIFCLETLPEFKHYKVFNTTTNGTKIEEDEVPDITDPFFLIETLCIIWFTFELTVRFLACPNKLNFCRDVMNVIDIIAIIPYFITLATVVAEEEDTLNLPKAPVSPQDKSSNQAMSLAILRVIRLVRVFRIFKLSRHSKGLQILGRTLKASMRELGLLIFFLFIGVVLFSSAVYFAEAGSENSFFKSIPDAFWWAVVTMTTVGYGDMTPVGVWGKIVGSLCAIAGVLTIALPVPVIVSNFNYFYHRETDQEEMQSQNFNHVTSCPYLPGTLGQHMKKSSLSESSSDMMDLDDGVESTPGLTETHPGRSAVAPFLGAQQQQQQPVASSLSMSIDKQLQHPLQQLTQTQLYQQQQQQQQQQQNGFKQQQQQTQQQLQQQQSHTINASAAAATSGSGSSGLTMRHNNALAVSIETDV", "details": "cited from earlier work"}, "[4]": {"system": "cardiac ventricular myocytes", "type": "cell-based, rat"}, "cardiac myocytes": {"system": "cardiac myocytes", "type": "cell-based, rat"}, "[5]": {"system": "primary cultures of cortex", "type": "cell-based, rat", "remark": "listed apart in the source"}, "F425G Shaker mutation": {"molecular_target": "F425G Shaker mutation (Drosophila melanogaster, UniProt P08510, F425G)", "sequence (P08510 whole entry F425G)": "as the sequence (P08510 whole entry) above, with F425G counted along it", "details": "cited from earlier work"}, "[6]": {"system": "primary cultures of cortical neurons", "type": "cell-based, rat"}, "[7]": {"system": "ventricular myocytes, cortex and trachea", "type": "cell-based, rat"}, "Kv1.4": {"molecular_target": "Kv1.4 (Homo sapiens, UniProt P22459)", "sequence (P22459 whole entry)": "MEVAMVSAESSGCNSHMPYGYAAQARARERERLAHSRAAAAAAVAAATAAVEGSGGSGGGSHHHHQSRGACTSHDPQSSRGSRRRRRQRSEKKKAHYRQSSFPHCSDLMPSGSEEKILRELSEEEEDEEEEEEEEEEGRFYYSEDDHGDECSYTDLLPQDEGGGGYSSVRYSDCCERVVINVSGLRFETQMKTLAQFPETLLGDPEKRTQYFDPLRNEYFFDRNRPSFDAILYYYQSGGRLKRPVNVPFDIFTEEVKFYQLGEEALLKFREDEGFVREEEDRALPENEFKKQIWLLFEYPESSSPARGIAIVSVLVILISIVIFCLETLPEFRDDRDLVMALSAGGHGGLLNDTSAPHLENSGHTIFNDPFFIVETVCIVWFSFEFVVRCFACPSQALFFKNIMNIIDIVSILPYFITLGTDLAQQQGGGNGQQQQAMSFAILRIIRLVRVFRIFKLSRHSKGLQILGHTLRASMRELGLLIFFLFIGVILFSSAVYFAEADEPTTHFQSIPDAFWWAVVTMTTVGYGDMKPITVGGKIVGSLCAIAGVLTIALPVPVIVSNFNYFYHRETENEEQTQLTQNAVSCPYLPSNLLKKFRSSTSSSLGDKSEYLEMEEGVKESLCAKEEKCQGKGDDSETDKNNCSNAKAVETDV", "details": "cited from earlier work"}, "[8]": {"system": "primary cultures of cortex"}, "[9]": {"system": "New Zealand White rabbits", "details": "rabbit, in vivo"}, "[10]": {"system": "primary cortical cultures"}, "[11]": {"system": "primary cultures of ventricular myocytes"}, "canine model of AMI": {"system": "canine model of AMI", "details": "dog, in vivo"}, "anesthetized rat": {"system": "anesthetized rat", "details": "in vivo, iv"}}, "note": "Where “and” joins values, the source holds several entries; their conditions need not be identical. Identical values can stand only once. Entries after “also recorded” stand apart in the source; their conditions may differ. Bridge positions count the residues as written; N and C are the ends. Square brackets hold non-standard residues; d marks the D form. Peptide text beside a SMILES is read from it. Hyp = O=C(O)[C@@H]1C[C@@H](O)CN1", "data": [{"smiles": "CC[C@H](C)[C@@H]1NC(=O)[C@H](CCCNC(=N)N)NC(=O)[C@@H](N)CSSC[C@@H]2NC(=O)[C@@H]3CSSC[C@@H](C(=O)N[C@H](C(=O)O)C(C)C)NC(=O)[C@H](CCCCN)NC(=O)[C@H](CC(N)=O)NC(=O)[C@H](Cc4ccccc4)NC(=O)[C@H](CCCNC(=N)N)NC(=O)[C@H](CC(N)=O)NC(=O)[C@H](CSSC[C@H](NC(=O)[C@H](CCCCN)NC(=O)[C@H](CCC(N)=O)NC(=O)[C@H](CC(N)=O)NC(=O)[C@@H]4C[C@@H](O)CN4C1=O)C(=O)N[C@@H](Cc1ccccc1)C(=O)N[C@@H](CCC(N)=O)C(=O)N[C@@H](Cc1c[nH]cn1)C(=O)N[C@@H](CC(C)C)C(=O)N[C@@H](CC(=O)O)C(=O)N[C@@H](CC(=O)O)C(=O)N3)NC(=O)[C@H](CCCCN)NC(=O)[C@H](CCCNC(=N)N)NC(=O)[C@H](CO)NC2=O", "note": "[κ-PVIIA, Cys-Xaa1-Ile-Xaa2-Asn-Gln-Xaa3-Cys-Xaa4-Gln-Xaa5-Leu-Asp-Asp-Cys-Cys-Ser-Xaa1-Xaa3-Cys-Asn-Xaa1-Xaa4-Asn-Xaa3-Cys-Val] (H-CRI[Hyp]NQKCFQHLDDCCSRKCNRFNKCV-OH; disulfide 1-16, 8-20, 15-26)", "values": [{"measurement": "effects on Kv1.3", "setting": "Kv1.3", "result": "no effects"}, {"measurement": "current corrected for cell capacitance", "setting": "[1]", "result": "2.4±0.7", "unit": "pA/pf"}, {"measurement": "current evoked by κ-PVIIA", "setting": "[1]", "result": "26.2±6.2", "unit": "pA"}, {"measurement": "reversal of κ-PVIIA-induced inward current", "setting": "[1]", "result": "~−20", "unit": "mV"}, {"measurement": "sensitivity of evoked currents to KATP antagonists", "setting": "[1]", "result": "sensitive"}, {"measurement": "intracellular K+ concentration (PBFI fluorescence)", "setting": "[2]", "result": "reduction"}, {"measurement": "activity on Kv1.1", "setting": "Kv1.1", "result": "no effects; also recorded: no detectable activity"}, {"measurement": "block of the Drosophila H4 shaker K+ channel", "setting": "[3]", "result": "block"}, {"measurement": "protection against hypoxia-induced depolarization", "setting": "[4]", "result": "prevented any hypoxia-induced changes in membrane potential; also recorded: protective effect"}, {"measurement": "protective effect against hypoxia induced depolarization (initial screen, Example 10)", "setting": "[4]", "result": "strong protective effect"}, {"measurement": "current corrected for cell capacitance", "setting": "cardiac myocytes", "result": "4.6±0.4", "unit": "pA/pf"}, {"measurement": "current evoked by κ-PVIIA", "setting": "cardiac myocytes", "result": "87.7±5.9", "unit": "pA"}, {"measurement": "experimentally determined Ek (reversal potential of evoked current)", "setting": "cardiac myocytes", "result": "−23", "unit": "mV"}, {"measurement": "reversal of κ-PVIIA-induced inward current", "setting": "cardiac myocytes", "result": "~−20", "unit": "mV"}, {"measurement": "sensitivity of evoked currents to KATP antagonists", "setting": "cardiac myocytes", "result": "sensitive"}, {"measurement": "initial glutamate-induced depolarization", "setting": "[5]", "result": "prevents the initial glutamate-induced depolarization"}, {"measurement": "effect of F425G Shaker mutation on κ-PVIIA sensitivity", "setting": "F425G Shaker mutation", "result": "abolishes"}, {"measurement": "change in intracellular calcium (Fluo-3 fluorescence)", "setting": "[6]", "result": "−2.15±0.95% and −8.8±3.9%"}, {"measurement": "protection against hypoxia-induced changes in intracellular calcium", "setting": "[7]", "result": "able to provide protection against hypoxia"}, {"measurement": "effect on infarct size", "setting": "isolated rabbit hearts", "result": "reduced the infarct size; also recorded: no effect"}, {"measurement": "degree of glutamate-induced excitotoxicity (delayed cellular death)", "setting": "cortical cells", "result": "effectively reduces the degree of glutamate-induced excitotoxicity in a dose-dependant manner"}, {"measurement": "protection against delayed cytotoxic effects of glutamate", "setting": "cortical cells", "result": "very effective protection"}, {"measurement": "activity on Kv1.4", "setting": "Kv1.4", "result": "no detectable activity"}, {"measurement": "EC50", "setting": "[8]", "result": 0.0008, "unit": "pM"}, {"measurement": "hemodynamic effect", "setting": "[9]", "result": "without any hemodynamic effect"}, {"measurement": "lowest effective dose", "setting": "[9]", "result": 0.01, "unit": "mg/kg"}, {"measurement": "infarct size as % of risk zone, protection", "setting": "[9]; iv", "result": "equally as protective"}, {"measurement": "protease activity (cytotoxicity)", "setting": "[10]", "result": "no detectable protease activity"}, {"measurement": "EC50", "setting": "[11]", "result": 0.0009, "unit": "pM"}, {"measurement": "drop in blood pressure normally seen upon reperfusion", "setting": "canine model of AMI", "result": "prevented the drop in blood pressure"}, {"measurement": "lowest effective dose", "setting": "canine model of AMI", "result": 0.1, "unit": "mg/kg"}, {"measurement": "effect on infarct size", "setting": "canine model of AMI; iv", "result": "No significant effect"}, {"measurement": "reduction of infarct size", "setting": "canine model of AMI; iv", "result": "approximately 60%"}, {"measurement": "effect on blood pressure", "setting": "anesthetized rat", "result": "no effect"}, {"measurement": "effect on heart rate", "setting": "anesthetized rat", "result": "no effect"}]}]}
